Source: a melting point compilation (Tetko et al.; mined from patent text by program, amines drawn as free bases though some values may be those of a salt)

Row | melting point [°C] | Compound
1 | 226 to 227 | CC(C)n1c(C=O)c(-c2ccc(F)cc2)c(-c2ccc(F)cc2)c1C(=O)Nc1ccc(CC(=O)N(C)C)cc1
2 | 187 to 189 | COC(=O)COc1ccc2cc(-c3cnc(-c4cn(C)c5ccccc45)o3)ccc2c1
3 | 182 to 183 | COc1ccc2[nH]c(SCc3nccc(N(C)C)n3)nc2c1
4 | > 280 | COc1cc(C)c(/C=C/c2nc3c(c(=O)n(C)c(=O)n3C)n2C)cc1C
5 | 200 to 202 | CN1CCN(CC2CCCCN2CC(=O)N2c3ccccc3NC(=O)c3ccccc32)CC1 (centres undefined)
6 | 240 to 242 | OC1CN(Cc2nc(-c3ccc4c(c3)Nc3ccccc3S4)cs2)C1
7 | 217 to 218 | C[C@@H](n1cnc2c(cnn2-c2ccc(F)cc2)c1=O)[C@](O)(Cn1cncn1)c1ccc(F)cc1F
8 | 189 to 192 | CC12CCC3c4ccc(C(=O)O)cc4CCC3C1CCC2C(=O)c1cccnc1 (centres undefined)
9 | 108 | Cc1cc(C)cc(C(=O)N2CCC(=O)CC2Cc2ccccc2)c1 (centres undefined)
10 | 249 to 250 | COc1ccc(C2=NN(c3ccc(C(=O)Nc4ccc(C5=NNC(=O)CC5C)cc4)cc3)C(=O)C3CC=CCC23)cc1OC (centres undefined)
11 | 191 to 192 | COc1cc(COc2cc(/C=C/C(=O)O)n(-c3ccccc3)n2)ccc1OCc1nc(-c2ccco2)oc1C
12 | 242 | COC(=O)c1cccc(Nc2nc(Cl)nc3[nH]cnc23)c1
13 | 167 to 168 | Cc1ncccc1-c1ccc(OC2SCC(O)C(O)C2O)cn1 (centres undefined)
14 | 191 to 194 | COc1c(Cl)ccc(-c2cc(N)c(Cl)c(C(=O)NOCCC#N)n2)c1F
15 | 137 to 139 | CCCCN(Cc1ccc(-c2ccccc2C#N)cc1)C(=O)Cc1ccccc1C(=O)O
16 | 123 to 125 | COC(=O)c1ccc(OC(=O)c2ccccc2C(=O)Oc2ccc(C(=O)OC)cc2)cc1
17 | 141 to 143 | CC(O)c1cc(-c2ccc(Cl)cc2)no1 (centres undefined)
18 | 206 to 207 | CC(C)(C)OCC(NC(=O)c1ccccc1SSc1ccccc1C(=O)NC(COC(C)(C)C)C(=O)O)C(=O)O (centres undefined)
19 | 108 | O=Cc1ccc2ccc(-c3ccccc3)nc2c1
20 | 266 to 270 | Cc1cc2c(c(C3=NNC(=O)CC3)c1)OCC(=O)N2

Continued, compound first:

Row | Compound | melting point [°C]
21 | CC(C)(C)c1nc2cc(N3CCOCC3)c(N=C=S)cc2s1 | 141 to 143
22 | O=C(CN1CCCC1=O)N1CCN(C(=O)CN2CC(c3ccc(Cl)cc3)CC2=O)CC1 (centres undefined) | 224 to 226
23 | Cc1cnc2c(=O)[nH]c3cc(Cl)c(Cl)cc3n12 | > 300
24 | S=C(c1cc2n(c1)Cc1ccccc1-n1ccnc1-2)N1CCOCC1 | 210 to 211
25 | COC(=O)c1cc(O)cc(O[C@@H](C)CO)c1 | 133
26 | CC(=O)Nc1ccc(C(=O)O)cc1NC(=O)CO | 214 to 215
27 | CC(=O)SC(Cc1ccc(F)cc1)C(=O)O (centres undefined) | 44 to 46
28 | CCOC(=O)c1cnn2c1c(NC1CCCCC1)nc1ccccc12 | 132 to 135
29 | Cc1noc(C2CC2)c1I | 71
30 | CC(O)CCSC(=S)Nc1ccc(Cl)cn1 (centres undefined) | 120
31 | CCOC(=O)c1cn(C2CC2)c2cc(C3=CCN(C(C)=O)CC3)c(F)cc2c1=O | 190 to 192
32 | Cc1nnc2n1-c1sc(CCc3ccc(CC(C)C)cc3)cc1C(c1ccccc1Cl)=NC2c1ccccc1 (centres undefined) | 170 to 172
33 | COc1ccc(C2CC3(C)C(C=CC3(C)O)C3CCC4=CC(=O)CCC4C23)cc1 (centres undefined) | 192
34 | CN(C)C(=O)ON=C1n2ccnc2SC1(C)C | 99 to 102
35 | CC(=O)N1CCC(C)(C)c2c(C)ccc(CCN3CCN(c4nsc5ccccc45)CC3)c21 | 132
36 | O=c1cc(O)c2cccc([N+](=O)[O-])c2o1 | 242 to 245
37 | CC(=O)c1c(C)[nH]c(-c2ccncc2)c1C | 205 to 207
38 | CC(C)(C)c1cc(C(=O)c2ccc(O)cc2O)cc(C(C)(C)C)c1O | 192 to 193
39 | CCCCCCCCCCCCCCCC(=O)N[C@@H](Cc1ccc(O)cc1)C(=O)OC | 100
